Source: patent US12209081B2 (Katholieke Universiteit Leuven, priority 2020, dated 2025)

Biological target: mouse TRPM3α2 (mTRPM3) ion channel (Mus musculus (Mouse), UniProt J9SQF3)
Test: TRPM3 ion channel driven Ca2+ uptake, Fluo-4 AM assay, mTRPM3alpha2 overexpressing flip-in HEK293 cells stimulated with pregnenolone sulfate
Assay type: cell-based
Settings: PS (50 μM) stimulated, cpd 001-199
Outline: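 Flip-in HEK293 cells loaded with Fluo-4 AM were added to plates holding compound plus 50 μM pregnenolone sulfate in Ca2+-containing Krebs buffer. Fluorescence (ex 485/em 535 nm) read directly after cell addition; % inhibition relative to PS-stimulated vehicle and positive-control inhibitor.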

Sequence of mouse TRPM3α2 (mTRPM3) ion channel (J9SQF3 other isoform, or with tags, fused parts or gaps): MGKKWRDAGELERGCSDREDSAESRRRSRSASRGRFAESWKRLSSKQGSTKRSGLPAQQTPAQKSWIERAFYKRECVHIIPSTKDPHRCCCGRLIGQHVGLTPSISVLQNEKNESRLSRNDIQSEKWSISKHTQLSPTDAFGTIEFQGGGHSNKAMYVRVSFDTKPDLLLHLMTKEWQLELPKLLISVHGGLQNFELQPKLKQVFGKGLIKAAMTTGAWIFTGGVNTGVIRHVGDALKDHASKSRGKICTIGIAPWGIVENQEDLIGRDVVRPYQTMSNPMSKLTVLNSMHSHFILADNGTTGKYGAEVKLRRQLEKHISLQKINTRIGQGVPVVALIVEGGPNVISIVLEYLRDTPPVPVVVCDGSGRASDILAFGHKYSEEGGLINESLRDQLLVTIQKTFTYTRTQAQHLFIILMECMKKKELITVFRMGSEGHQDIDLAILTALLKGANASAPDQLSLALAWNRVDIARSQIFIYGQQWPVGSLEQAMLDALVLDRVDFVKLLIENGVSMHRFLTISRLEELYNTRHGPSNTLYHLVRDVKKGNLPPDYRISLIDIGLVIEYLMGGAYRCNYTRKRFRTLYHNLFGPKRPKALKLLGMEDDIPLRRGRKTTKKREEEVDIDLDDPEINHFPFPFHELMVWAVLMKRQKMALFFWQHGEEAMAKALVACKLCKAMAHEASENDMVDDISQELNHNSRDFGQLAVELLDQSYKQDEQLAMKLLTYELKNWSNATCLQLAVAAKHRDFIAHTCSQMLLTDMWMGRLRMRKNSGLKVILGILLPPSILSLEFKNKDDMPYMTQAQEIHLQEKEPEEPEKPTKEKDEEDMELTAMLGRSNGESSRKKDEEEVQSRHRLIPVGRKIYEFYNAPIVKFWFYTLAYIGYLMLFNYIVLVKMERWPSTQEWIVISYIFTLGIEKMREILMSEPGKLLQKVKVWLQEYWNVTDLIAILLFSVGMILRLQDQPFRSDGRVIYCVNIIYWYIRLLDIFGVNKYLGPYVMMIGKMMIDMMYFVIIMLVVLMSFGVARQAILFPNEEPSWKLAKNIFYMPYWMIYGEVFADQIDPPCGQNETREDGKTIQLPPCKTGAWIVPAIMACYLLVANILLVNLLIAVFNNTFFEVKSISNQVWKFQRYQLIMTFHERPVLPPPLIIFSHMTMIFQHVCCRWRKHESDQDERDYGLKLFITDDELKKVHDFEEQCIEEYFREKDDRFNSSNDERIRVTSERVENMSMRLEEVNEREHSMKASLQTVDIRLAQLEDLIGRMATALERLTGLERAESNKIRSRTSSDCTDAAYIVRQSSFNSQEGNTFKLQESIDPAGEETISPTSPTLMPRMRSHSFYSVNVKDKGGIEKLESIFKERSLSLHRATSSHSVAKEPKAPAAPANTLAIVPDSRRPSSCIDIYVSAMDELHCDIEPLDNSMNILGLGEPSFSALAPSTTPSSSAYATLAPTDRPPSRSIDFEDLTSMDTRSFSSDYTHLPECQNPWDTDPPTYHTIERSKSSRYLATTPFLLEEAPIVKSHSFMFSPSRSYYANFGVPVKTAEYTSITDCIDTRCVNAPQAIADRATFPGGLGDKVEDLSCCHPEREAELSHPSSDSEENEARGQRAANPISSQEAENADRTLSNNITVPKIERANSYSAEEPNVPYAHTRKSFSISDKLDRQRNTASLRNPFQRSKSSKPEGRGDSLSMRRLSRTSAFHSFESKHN

Row | Compound | IC50
1 | Cc1oc2ccc(OCc3nc(C(F)(F)F)cs3)cc2c1C(=O)NC1CCOC1 (centres unmarked) [compound 057, 2-methyl-N-(tetrahydrofuran-3-yl)-5-((4-(trifluoromethyl)thiazol-2-yl)methoxy)benzofuran-3-carboxamide] | > 20 µM
2 | Cc1oc2ccc(OCc3ccc4cnccc4c3)cc2c1C(=O)NC1CCN(C)CC1 [compound 061, 5-(isoquinolin-6-ylmethoxy)-2-methyl-N-(1-methylpiperidin-4-yl)benzofuran-3-carboxamide] | > 20 µM
3 | Cc1oc2ccc(OCc3cncc(C(F)(F)F)c3)cc2c1C(=O)NC1CCNCC1(F)F (centres unmarked) [compound 075, N-(3,3-difluoropiperidin-4-yl)-2-methyl-5-((5-(trifluoromethyl)pyridin-3-yl)methoxy)benzofuran-3-carboxamide] | > 20 µM
4 | Cc1oc2ccc(OCc3cncc(C(F)(F)F)c3)cc2c1C(=O)N[C@H]1CCN(C(=O)OC(C)(C)C)C1 [compound 077, tert-butyl (S)-3-(2-methyl-5-((5-(trifluoromethyl)pyridin-3-yl)methoxy)benzofuran-3-carboxamido)pyrrolidine-1-carboxylate] | > 20 µM
5 | Cc1ncsc1COc1ccc2oc(C)c(C(=O)NC3(CCO)CCC3)c2c1 [compound 114, N-(1-(2-hydroxyethyl)cyclobutyl)-2-methyl-5-((4-methylthiazol-5-yl)methoxy)benzofuran-3-carboxamide] | < 1 µM
6 | Cc1oc2ccc(OCc3cccnc3C(F)(F)F)cc2c1C(=O)NC1(CO)CCC1 [compound 117, N-(1-(hydroxymethyl)cyclobutyl)-2-methyl-5-((2-(trifluoromethyl)pyridin-3-yl)methoxy)benzofuran-3-carboxamide] | < 1 µM
7 | Cc1ncsc1COc1ccc2oc(C)c(C(=O)NC3(C(N)=O)COC3)c2c1 [compound 119, N-(3-carbamoyloxetan-3-yl)-2-methyl-5-((4-methylthiazol-5-yl)methoxy)benzofuran-3-carboxamide] | < 1 µM
8 | Cc1oc2ccc(OCc3cccnc3C(F)(F)F)cc2c1C(=O)NC1(CCO)CCC1 [compound 127, N-(1-(2-hydroxyethyl)cyclobutyl)-2-methyl-5-((2-(trifluoromethyl)pyridin-3-yl)methoxy)benzo-furan-3-carboxamide] | < 1 µM
9 | Cc1ncsc1COc1ccc2oc(C)c(C(=O)NC3(CCO)COC3)c2c1 [compound 128, N-(3-(2-hydroxyethyl)oxetan-3-yl)-2-methyl-5-((4-methylthiazol-5-yl)methoxy)benzofuran-3-carboxamide] | < 1 µM
10 | Cc1oc2ccc(OCc3cccnc3C(F)(F)F)cc2c1C(=O)NC1(CCO)COC1 [compound 129, N-(3-(2-hydroxyethyl)oxetan-3-yl)-2-methyl-5-((2-(trifluoromethyl)pyridin-3-yl)methoxy) -benzofuran-3-carboxamide] | < 1 µM
11 | Cc1oc2ccc(OCc3cccnc3C(F)(F)F)cc2c1C(=O)NC1(CN)CCC1 [compound 136, N-(1-(aminomethyl)cyclobutyl)-2-methyl-5-((2-(trifluoromethyl)pyridin-3-yl)methoxy)benzofuran-3-carboxamide] | < 1 µM
12 | Cc1ncsc1COc1ccc2oc(C)c(C(=O)NC3(CO)CC3)c2c1 [compound 139, N-(1-(hydroxymethyl)cyclopropyl)-2-methyl-5-((4-methylthiazol-5-yl)methoxy)benzofuran-3-carboxamide] | < 1 µM
13 | Cc1oc2ccc(OCc3cccnc3C(F)(F)F)cc2c1C(=O)NC1(CN(C)C)CCC1 [compound 140, N-(1-((dimethylamino)methyl)cyclobutyl)-2-methyl-5-((2-(trifluoromethyl)pyridin-3-yl)methoxy) -benzofuran-3-carboxamide] | < 1 µM
14 | Cc1ncsc1COc1ccc2oc(C)c(C(=O)NC3(CO)COC3)c2c1 [compound 142, N-(3-(hydroxymethyl)oxetan-3-yl)-2-methyl-5-((4-methylthiazol-5-yl)methoxy)benzofuran-3-carboxamide] | < 1 µM
15 | Cc1oc2ccc(OCc3cccnc3C(F)(F)F)cc2c1C(=O)Nc1cnn(C)c1 [compound 143, 2-methyl-N-(1-methyl-1H-pyrazol-4-yl)-5-((2-(trifluoromethyl)pyridin-3-yl)methoxy)benzofuran-3-carboxamide] | < 1 µM
16 | Cc1ncsc1COc1ccc2oc(C)c(C(=O)Nc3cc[nH]n3)c2c1 [compound 144, 2-methyl-5-((4-methylthiazol-5-yl)methoxy)-N-(1H-pyrazol-3-yl)benzofuran-3-carboxamide] | < 1 µM
17 | Cc1ncsc1COc1ccc2oc(C)c(C(=O)NC3(CNCC(F)(F)F)CCC3)c2c1 [compound 145, 2-methyl-5-((4-methylthiazol-5-yl)methoxy)-N-(1-(((2,2,2-trifluoroethyl)amino)methyl)cyclobutyl) -benzofuran-3-carboxamide] | < 1 µM
18 | Cc1oc2ccc(OCc3cccnc3C(F)(F)F)cc2c1C(=O)Nc1ccn(C)n1 [compound 146, 2-methyl-N-(1-methyl-1H-pyrazol-3-yl)-5-((2-(trifluoromethyl)pyridin-3-yl)methoxy)benzofuran-3-carboxamide] | < 1 µM
19 | Cc1ncsc1COc1ccc2oc(C)c(C(=O)Nc3cn[nH]c3)c2c1 [compound 150, 2-methyl-5-((4-methylthiazol-5-yl)methoxy)-N-(1H-pyrazol-4-yl)benzofuran-3-carboxamide] | < 1 µM
20 | Cc1ncsc1COc1ccc2oc(C)c(C(=O)Nc3cnn(C)c3)c2c1 [compound 152, 2-methyl-N-(1-methyl-1H-pyrazol-4-yl)-5-((4-methylthiazol-5-yl)methoxy)benzofuran-3-carboxamide] | < 1 µM
21 | Cc1oc2ccc(OCc3cccnc3C(F)(F)F)cc2c1C(=O)NC1(CNCC(F)(F)F)CCC1 [compound 153, 2-methyl-N-(1-(((2,2,2-trifluoroethyl)amino)methyl)cyclobutyl)-5-((2-(trifluoromethyl)pyridin-3-yl)methoxy)benzofuran-3-carboxamide] | < 1 µM
22 | Cc1oc2ccc(OCc3cccnc3C(F)(F)F)cc2c1C(=O)Nc1ccnn1C [compound 154, 2-methyl-N-(1-methyl-1H-pyrazol-5-yl)-5-((2-(trifluoromethyl)pyridin-3-yl)methoxy)benzofuran-3-carboxamide] | < 1 µM
23 | Cc1ncsc1COc1ccc2oc(C)c(C(=O)NC3CC4(COC4)C3)c2c1 [compound 156, 2-methyl-5-((4-methylthiazol-5-yl)methoxy)-N-(2-oxaspiro[3,3]heptan-6-yl)benzofuran-3-carboxamide] | < 1 µM

Further lines, results first:

Row | IC50 | Compound
24 | < 1 µM | Cc1ncsc1COc1ccc2oc(C)c(C(=O)NC3CCNCC3(F)F)c2c1 (centres unmarked) [compound 056, N-(3,3-difluoropiperidin-4-yl)-2-methyl-5-((4-methylthiazol-5-yl)methoxy)benzofuran-3-carboxamide]
25 | < 1 µM | COc1ncccc1COc1ccc2oc(C)c(C(=O)NC3(CO)CCOCC3)c2c1 [compound 058, N-(4-(hydroxymethyl)tetrahydro-2H-pyran-4-yl)-5-((2-methoxypyridin-3-yl)methoxy)-2-methyl-benzofuran-3-carboxamide]
26 | < 1 µM | Cc1oc2ccc(OCc3cccnc3C(F)(F)F)cc2c1C(=O)NC1CCNC1=O (centres unmarked) [compound 064, 2-methyl-N-(2-oxopyrrolidin-3-yl)-5-((2-(trifluoromethyl)pyridin-3-yl)methoxy)benzofuran-3-carboxamide]
27 | < 1 µM | Cc1oc2ccc(OCc3cccnc3Cl)cc2c1C(=O)NC1CCNCC1(F)F (centres unmarked) [compound 067, 5-((2-chloropyridin-3-yl)methoxy)-N-(3,3-difluoropiperidin-4-yl)-2-methylbenzofuran-3-carboxamide]
28 | < 1 µM | Cc1oc2ccc(OCc3cnccc3Cl)cc2c1C(=O)NC1CCNCC1(F)F (centres unmarked) [compound 068, 5-((4-chloropyridin-3-yl)methoxy)-N-(3,3-difluoropiperidin-4-yl)-2-methylbenzofuran-3-carboxamide]
29 | < 1 µM | Cc1oc2ccc(OCc3ccc4nccn4c3)cc2c1C(=O)NC1CCNCC1(F)F (centres unmarked) [compound 070, N-(3,3-difluoropiperidin-4-yl)-5-(imidazo[1,2-a]pyridin-6-ylmethoxy)-2-methylbenzofuran-3-carboxamide]
30 | < 1 µM | Cc1oc2ccc(OCc3cccc(N(C)C)n3)cc2c1C(=O)NC1CCNCC1(F)F (centres unmarked) [compound 071, N-(3,3-difluoropiperidin-4-yl)-5-((6-(dimethylamino)pyridin-2-yl)methoxy)-2-methylbenzofuran-3-carboxamide]
31 | < 1 µM | Cc1oc2ccc(OCc3cccnc3C(F)(F)F)cc2c1C(=O)NC1(CO)CCOCC1 [compound 072, N-(4-(hydroxymethyl)tetrahydro-2H-pyran-4-yl)-2-methyl-5-((2-(trifluoromethyl)pyridin-3-yl) -methoxy)benzofuran-3-carboxamide]
32 | < 1 µM | Cc1ncsc1COc1ccc2oc(C)c(C(=O)NC(C)(C)CO)c2c1 [compound 104, N-(1-hydroxy-2-methylpropan-2-yl)-2-methyl-5-((4-methylthiazol-5-yl)methoxy)benzofuran-3-carboxamide]
33 | < 1 µM | Cc1ncsc1COc1ccc2oc(C)c(C(=O)NC3(CO)CCC3)c2c1 [compound 107, N-(1-(hydroxymethyl)cyclobutyl)-2-methyl-5-((4-methylthiazol-5-yl)methoxy)benzofuran-3-carboxamide]
34 | < 1 µM | Cc1ncsc1COc1ccc2oc(C)c(C(=O)NC3(CN(C)C)CCC3)c2c1 [compound 108, N-(1-((dimethylamino)methyl)cyclobutyl)-2-methyl-5-((4-methylthiazol-5-yl)methoxy)benzofuran-3-carboxamide]
35 | < 1 µM | Cc1oc2ccc(OCc3cccnc3C(F)(F)F)cc2c1C(=O)NC(C)(C)CO [compound 109, N-(1-hydroxy-2-methylpropan-2-yl)-2-methyl-5-((2-(trifluoromethyl)pyridin-3-yl)methoxy)benzofuran-3-carboxamide]
